How the values were obtained:
Type in all cases: in vivo, human
chronic cough patients = test: Phase 2b dose-escalation crossover study in chronic cough patients
Procedure: Cough frequency was measured objectively utilizing a cough recording device, with periodic measurements following Compound 16 treatment compared to a baseline recording.
The 29-patient randomized, double-blind, placebo controlled, Phase 2b crossover study was conducted at 10 clinical sites in the U.S. Patients were randomized to either Compound 16 or placebo arms. Those in the treatment group received Compound 16 50 mg, followed by a titration up to 100 mg, 150 mg and 200 mg, with each dose given twice daily for four days. Treatment period one was followed by a 3-5 day washout period. Patients were then crossed over to the alternate arm of the study and treated with either Compound 16 or placebo for 16 more days.

[1] = Phase 1/Phase 2 clinical studies: safety, tolerability and pharmacokinetics after oral administration
Procedure: Compound 16 has progressed to completion of 6 Phase 1 studies and 5 Phase 2 studies, with several studies in progress or soon to commence, and over 400 subjects dosed at least once with Compound 16. […] Studies in normal healthy volunteers have explored safety, tolerability and pharmacokinetics of Compound 16 following oral administration of doses from 10 mg to 1800 mg for up to 3 weeks. […] Plasma half-life falls in the range of 7-9 h, with steady state for BID dosing achieved after 3 doses.

[2] = system: treatment-resistant chronic cough patients; test: Double-blind randomized placebo-controlled crossover trial in idiopathic/treatment-resistant chronic cough; conditions: 600 mg bd
Procedure: Thus, the inventors explored the role of P2X3 receptors in the sensitization of vagal pathways mediating the cough reflex leading to chronic cough (CC). A study was performed to investigate the efficacy of oral administration of Compound 16 in reducing daytime cough in idiopathic/treatment-resistant chronic cough.
In this study, a double-blind randomized placebo-controlled crossover trial, 24 subjects (19 women, mean age 55 yrs) were randomized into a double blind, placebo-controlled, 2-period, crossover study, of Compound 16, 600 mg bd. Cough was assessed using an ambulatory sound monitoring system at baseline and after 2 weeks of treatment; primary endpoint, daytime objective cough frequency (coughs/hr) (VitaloJAK™); secondary endpoints, cough severity and urge to cough (UTC) visual analogue scales (VAS), global ratings of change and cough quality of life questionnaire (CQLQ).

With `COc1cc(C(C)C)c(Oc2cnc(N)nc2N)cc1S(N)(=O)=O` [Compound 16, 5-(2,4-Diamino-pyrimidin-5-yloxy)-4-isopropyl-2-methoxy-benzenesulfonamide] the “incidence of decreased taste acuity” value (chronic cough patients; 50 mg dose versus 600 mg twice daily in the first study) was “much less at the 50 mg dose”, the tolerability (chronic cough patients; 50-200 mg twice daily) was “generally well tolerated” and the “patients who discontinued treatment due to the taste effect” value (chronic cough patients; at any dose, 29 patients) was “Only one patient discontinued treatment”. For the same compound, the “steady state for BID dosing achieved after” value ([1]; human, oral BID dosing) was 3 doses, the oral bioavailability ([1]; human, based on % dose recovered in urine) was “appears to be high” and the Clinical safety ([1]; over 400 subjects dosed at least once, 10 mg to 1800 mg) was “excellent”. The “adverse events (AEs)” value ([1]; patients and healthy volunteers, dose-dependent, notable at higher dose levels) was “limited to oropharyngeal findings (hypogeusia)”, the half-life ([1]; plasma, human, oral, immediate release formulation) was 7 to 9 h and the “CQLQ (cough quality of life questionnaire), mean difference vs. placebo” value ([2]; 2 weeks, (−2 to −17), p=0.018) was −9. For the same compound, the “UTC (urge to cough) VAS, mean difference vs. placebo” value ([2]; 2 weeks, (−2 to −41), p=0.035) was −21 mm, the “cough severity VAS, mean difference vs. placebo” value ([2]; 2 weeks, (−10 to −42), p=0.003) was −26 mm and the “daytime coughs/hr, mean difference vs. placebo” value ([2]; after 2 weeks of treatment, 95% CI −50 to −88, p<0.001) was −75%. For the same compound, the “patients who rated an improved cough” value ([2]; compared to 2/22 treated with placebo) was 13/24 and the “reduction in objective daytime cough counts” value ([2]; patients with refractory chronic cough) was 75%.

Reference: patent publication US11260056B2, “Diaminopyrimidine P2X3 and P2X2/3 receptor modulators for use in the treatment of cough” (Afferent Pharmaceuticals, Inc., priority 2015, dated 2022)
